Patent EP1388586A2, “Identification of broadly reactive DR restricted epitopes” (priority 1998, dated 1999)
Read-outs that look alike come from different tables or passages of the source. Square brackets hold non-standard residues; d marks the D form. Ends that are not written are not given here. Peptide text beside a SMILES is read from it.

Tests used:
DRB1*0101 (DR1) = molecular target: T1, DRB1*0101 (DR1) (Homo sapiens, UniProt P01903+P01911, A100R/D57E/F55L/F60I/F76Y/I96L/L162R/M171V/P40L/Q125E/R42F/V115G/Y59C); assay: Class II peptide-binding assay, DR1;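 also: competition assay: unlabeled test peptides inhibit binding of a radiolabeled probe peptide to purified DR, with half-maximal inhibition taken as an approximate dissociation constant Kd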
T1 construct: used as sources of human HLA class II molecules; endogenous in cells; host or cells: LG2 (EBV-transformed homozygous B cell line)

DRB5*0101 (DR2w2a) = molecular target: T2, DRB5*0101 (DR2w2a) (Homo sapiens, UniProt P01903+Q30154); assay: Class II peptide-binding assay, DR2w2a (DR2w2B2);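 also: competitive binding assay: unlabeled peptide inhibiting binding of a radiolabeled probe peptide to purified DR molecules at pH 7.0, IC50 approximating Kd, lower means stronger binding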
T2 construct: used as sources of human HLA class II molecules; endogenous in cells; host or cells: GM3107 (EBV-transformed homozygous B cell line)

DRB1*0301 (DR3w17) = molecular target: T3, DRB1*0301 (DR3w17) (Homo sapiens, UniProt P01903+P01911, A100K/A102G/A103R/A169T/F55Y/I96L/K41T/L162R/M171V/P40S/Q125H/Q178H/Q39Y/R42S/S66N/T106N/T262R/W38E/Y61H); assay: Class II peptide-binding assay, DR3 (pH 4.5);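 also: unlabeled peptide competing with a radiolabeled probe peptide for binding to affinity-purified HLA-DR3, IC50 regarded as an approximation of Kd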
T3 construct: used as sources of human HLA class II molecules; endogenous in cells; host or cells: MAT (EBV-transformed homozygous B cell line)
Protocol: (§1) Class II peptide-binding assays. […] These assays were chosen as to be representative of the most common DR alleles.
In appropriate stoichiometric conditions, the IC50 of an unlabeled test peptide to the purified DR is a reasonable approximation of the affinity of interaction (Kd). Peptides were tested in two to four completely independent experiments. […] Final detergent concentration in the incubation mixture was 0.05% Nonidet P-40. Assays were performed at pH 7.0 with the exception of DR3, which was performed at pH 4.5, and DRw53, which was performed at pH 5.0.
(§2) All subsequent inhibition and direct binding assays were the performed using these class II concentrations.

DRB1*0401 (DR4w4) = molecular target: T4, DRB1*0401 (DR4w4) (Homo sapiens, UniProt P01903+P01911, A100K/A169T/F76Y/I96L/K127E/L162R/M171V/N62H/P40V/Q125Y/R42H/S133A/S149N/S66Y/V115G/V209L/W38E); assay: Class II peptide-binding assay, DR4w4;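 also: unlabeled test peptides compete with a radiolabeled probe peptide for binding to affinity-purified HLA-DR, with DR amount titrated to capture a small fraction of label, IC50 approximating Kd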
T4 construct: used as sources of human HLA class II molecules; endogenous in cells; host or cells: PREISS (EBV-transformed homozygous B cell line)

DRB10404 (DR4w14) = molecular target: T5, DRB10404 (DR4w14) (Homo sapiens, UniProt P01903+P01911, A100R/A169T/F76Y/I96L/K127E/L162R/M171V/N62H/P40V/Q125Y/R42H/S133A/S149N/S66Y/V209L/W38E); assay: Class II peptide-binding assay, DR4w14;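 also: unlabeled peptides compete with a radiolabeled probe for binding to affinity-purified HLA-DR, neutral pH, class II amount titrated to bind a small fraction of label, IC50 approximates Kd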
T5 construct: used as sources of human HLA class II molecules; endogenous in cells; host or cells: BIN40 (EBV-transformed homozygous B cell line)

DRB1*1101 (DR5w11) = molecular target: T6, DRB1*1101 (DR5w11) (Homo sapiens, UniProt P01903+P01911, A100R/A169T/A87E/I96F/K41T/L162R/M171V/P40S/Q125H/Q178H/Q39Y/Q99D/R42S/S66Y/T262R/V115G/W38E); assay: Class II peptide-binding assay, DR5w11;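 also: competition by unlabeled test peptide against iodinated probe peptide binding to affinity-purified HLA-DR, class II amount titrated beforehand, half-maximal inhibitory concentration read as approximate Kd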
T6 construct: used as sources of human HLA class II molecules; endogenous in cells; host or cells: SWEIG (EBV-transformed homozygous B cell line)

DRB1*0701 (DR7) = DRB1*0701 (DR7) (Homo sapiens, UniProt P01903+P01911, A100R/A102G/A103Q/D57E/D86V/E43K/F76Y/K127E/L162R/M171V/P40G/Q125H/Q99D/R33Q/R42Y/R54Q/S133A/S66F/T210M/V115G/Y107V/Y59L/Y89S); assay: Class II peptide-binding assay, DR7;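 also: unlabeled peptides compete with an iodinated probe peptide for binding to affinity-purified HLA-DR at neutral pH, DR amount titered to bind a small tracer fraction, IC50 approximating Kd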
Protocol: as §1
Radiolabeled peptides were iodinated using the chloramine-T method. […] In appropriate stoichiometric conditions, the IC50 of an unlabeled test peptide to the purified DR is a reasonable approximation of the affinity of interaction (Kd). Peptides were tested in two to four completely independent experiments. […] Final detergent concentration in the incubation mixture was 0.05% Nonidet P-40. Assays were performed at pH 7.0 with the exception of DR3, which was performed at pH 4.5, and DRw53, which was performed at pH 5.0.
as §2

[1] = read-out: In IC50 Format DR1, Table VIII
[2] = read-out: In IC50 Format DR2w2β2, Table VIII
[3] = read-out: In IC50 Format DR3, Table VIII
[4] = read-out: In IC50 Format DR4w4, Table VIII
[5] = read-out: In IC50 Format DR5w11, Table VIII
[6] = read-out: In IC50 Format DR7, Table VIII
[7] = read-out: DR1 nM, Table VIII, In IC50 Format
[8] = read-out: DR2w2B2 nM, Table VIII, In IC50 Format
[9] = read-out: DR3 nM, Table VIII, In IC50 Format
[10] = read-out: DR4w4 nM, Table VIII, In IC50 Format
[11] = read-out: DR4w14 nM, Table VIII, In IC50 Format
[12] = read-out: DR5w11 nM, Table VIII, In IC50 Format
[13] = read-out: DR7 nM, Table VIII, In IC50 Format
[14] = read-out: DR1 nM (In IC50 Format), purified HLA DR1
[15] = read-out: DR2w2B2 nM (In IC50 Format), purified HLA DR2w2β2
[16] = read-out: DR3 nM (In IC50 Format), purified HLA DR3
[17] = read-out: DR4w4 nM (In IC50 Format), purified HLA DR4w4
[18] = read-out: DR4w14 nM (In IC50 Format), purified HLA DR4w14
[19] = read-out: DR5w11 nM (In IC50 Format), purified HLA DR5w11
[20] = read-out: DR7 nM (In IC50 Format), purified HLA DR7

T3 sequence (P01903 26-254, other chains not shown): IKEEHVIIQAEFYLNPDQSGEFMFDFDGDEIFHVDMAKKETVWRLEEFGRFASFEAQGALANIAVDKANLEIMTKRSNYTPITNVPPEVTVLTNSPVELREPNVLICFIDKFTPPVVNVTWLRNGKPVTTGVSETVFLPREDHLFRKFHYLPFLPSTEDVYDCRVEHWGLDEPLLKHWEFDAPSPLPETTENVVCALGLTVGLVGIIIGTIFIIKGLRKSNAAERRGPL
T6 sequence (P01903 26-254, other chains not shown): as above

| Compound | IC50 (DRB1*0101 (DR1); [14]) [µM] | IC50 (DRB5*0101 (DR2w2a); [15]) [µM] | IC50 (DRB1*0301 (DR3w17); [16]) [µM] | IC50 (DRB1*0401 (DR4w4); [17]) [µM] | IC50 (DRB10404 (DR4w14); [18]) [µM] | IC50 (DRB1*1101 (DR5w11); [19]) [µM] | IC50 (DRB1*0701 (DR7); [20]) [µM] | also measured |
| --- | --- | --- | --- | --- | --- | --- | --- | --- |
| DVFKELKVHHANENI [Peptide 519.00] |  |  |  |  |  |  |  | IC50 (DRB1*0101 (DR1); [1]): 0.0096 µM; IC50 (DRB5*0101 (DR2w2a); [2]): 0.571 µM; IC50 (DRB1*0301 (DR3w17); [3]): 150 µM; IC50 (DRB1*0401 (DR4w4); [4]): 0.0409 µM; IC50 (DRB10404 (DR4w14); read-out: In IC50 Format DR4w14, Table VIII): 0.25 µM; IC50 (DRB1*1101 (DR5w11); [5]): 0.118 µM; IC50 (DRB1*0701 (DR7); [6]): 0.463 µM |
| CC[C@H](C)[C@H](NC(=O)[C@H](CC(N)=O)NC(=O)[C@H](CCCCN)NC(=O)[C@H](Cc1ccccc1)NC(=O)[C@H](Cc1ccccc1)NC(=O)[C@H](Cc1c[nH]cn1)NC(=O)[C@@H](NC(=O)[C@@H](NC(=O)[C@@H]1CCCN1C(=O)[C@H](CC(N)=O)NC(=O)[C@H](CCC(=O)O)NC(=O)[C@H](CC(=O)O)NC(=O)[C@H](CCC(N)=O)NC(=O)[C@@H](NC(=O)[C@H](CCCNC(=N)N)NC(=O)CN)[C@@H](C)O)C(C)C)C(C)C)C(=O)N[C@H](C(=O)N[C@H](C(=O)N1CCC[C@H]1C(=O)N[C@@H](CCCNC(=N)N)C(=O)O)[C@@H](C)O)C(C)C [Peptide 507.02] |  |  |  |  |  |  |  | IC50 (DRB1*0101 (DR1); [1]): 0.0172 µM; IC50 (DRB5*0101 (DR2w2a); [2]): 0.25 µM; IC50 (DRB1*0301 (DR3w17); [3]): 60 µM; IC50 (DRB1*0401 (DR4w4); [4]): 0.0058 µM; IC50 (DRB1*1101 (DR5w11); [5]): 0.133 µM; IC50 (DRB1*0701 (DR7); [6]): 1 µM |
| CC(C)C[C@H](NC(=O)[C@@H](NC(=O)[C@H](C)NC(=O)[C@H](C)NC(=O)[C@H](C)NC(=O)[C@H](CCCCN)NC(=O)[C@H](Cc1ccccc1)NC(=O)[C@H](C)NC(=O)[C@@H](C)N)[C@@H](C)O)C(=O)N[C@@H](CCCCN)C(=O)N[C@@H](C)C(=O)N[C@@H](C)C(=O)N[C@H](C)C(N)=O [Peptide 871.08] (H-[dA]AFKAAATLKAA[dA]-NH2) |  |  |  |  |  |  |  | IC50 (DRB1*0101 (DR1); [7]): 0.0018 µM; IC50 (DRB5*0101 (DR2w2a); [8]): 0.0039 µM; IC50 (DRB1*0301 (DR3w17); [9]): 15 µM; IC50 (DRB1*0401 (DR4w4); [10]): 0.0019 µM; IC50 (DRB10404 (DR4w14); [11]): 0.01 µM; IC50 (DRB1*1101 (DR5w11); [12]): 0.009 µM; IC50 (DRB1*0701 (DR7); [13]): 0.111 µM |
| YAEFQAEKTLKAAS-NH2 [Peptide 717.05] | 0.0082 | 0.339 | 4 | 0.0064 | 0.0294 | 0.0488 |  |  |
| LSGSHLVEALYLVSGERGFF [Peptide 734.02] | 0.0144 | 2.86 | 30 | 0.865 | 1.02 | 10 | 0.124 |  |
| DTVKLMYKGQPMTFRLLLV [Peptide 866.01] |  |  |  |  |  |  |  | IC50 (DRB1*0101 (DR1); [7]): 0.023 µM; IC50 (DRB5*0101 (DR2w2a); [8]): 0.0077 µM; IC50 (DRB1*0301 (DR3w17); [9]): 42.9 µM; IC50 (DRB1*0401 (DR4w4); [10]): 0.176 µM; IC50 (DRB10404 (DR4w14); [11]): 10 µM; IC50 (DRB1*1101 (DR5w11); [12]): 0.169 µM; IC50 (DRB1*0701 (DR7); [13]): 3.57 µM |
| TSATQRLANSLVHSSNNFG [Peptide 735.02] | 0.111 | 10 | 33.3 | 0.0054 | 0.0132 | 0.13 | 0.373 |  |
| CSCC[C@H](N)C(=O)NCC(=O)N[C@@H](CCC(N)=O)C(=O)N[C@@H](CC(N)=O)C(=O)N[C@@H](CC(C)C)C(=O)N[C@@H](CO)C(=O)N[C@H](C(=O)N[C@@H](CO)C(=O)N[C@@H](CC(N)=O)C(=O)N1CCC[C@H]1C(=O)N[C@@H](CC(C)C)C(=O)NCC(=O)N[C@@H](Cc1ccccc1)C(=O)N[C@@H](Cc1ccccc1)C(=O)N1CCC[C@H]1C(=O)N[C@@H](CC(=O)O)C(=O)N[C@@H](Cc1c[nH]cn1)C(=O)O)[C@@H](C)O [Peptide 800.01] | 0.0943 |  | 6.82 | 0.0688 | 2 | 2 | 0.154 |  |
| LLVIVELIPSTSS [Peptide 778.00] | 0.0676 | 2.22 | 60 | 0.0281 | 0.0825 | 1.11 | 5 |  |
| CC[C@H](C)[C@H](NC(=O)[C@H](CCCNC(=N)N)NC(=O)[C@H](CO)NC(=O)[C@H](Cc1ccccc1)NC(=O)[C@@H](NC(=O)[C@H](CO)NC(=O)[C@H](CO)NC(=O)[C@H](CC(C)C)NC(=O)[C@@H]1CCCN1C(=O)[C@H](CO)NC(=O)[C@H](C)NC(=O)[C@@H](NC(=O)[C@@H](NC(=O)[C@H](CC(C)C)NC(=O)[C@@H](NC(=O)[C@@H]1CCCN1C(=O)[C@@H](N)CC(N)=O)C(C)C)[C@@H](C)O)[C@@H](C)O)[C@@H](C)CC)C(=O)O [Peptide 801.02] | 0.714 | 20 | 300 | 0.0541 | 0.0065 |  | 0.0631 |  |
| CSCC[C@H](NC(=O)[C@H](CC(C)C)NC(=O)[C@H](CCC(=O)O)NC(=O)CNC(=O)[C@H](Cc1c[nH]c2ccccc12)NC(=O)[C@@H](N)CS)C(=O)N[C@H](C(=O)N[C@@H](CC(C)C)C(=O)N[C@@H](C)C(=O)N[C@H](C(=O)N[C@@H](Cc1c[nH]c2ccccc12)C(=O)N[C@H](C(=O)NCC(=O)N[C@H](C(=O)N[C@@H](CC(N)=O)C(=O)N[C@@H](CC(C)C)C(=O)N[C@@H](CCC(=O)O)C(=O)N[C@@H](CC(=O)O)C(=O)O)C(C)C)C(C)C)[C@@H](C)O)[C@@H](C)O [Peptide 802.02] | 0.357 |  | 100 | 0.738 | 0.0907 | 5 | 6.25 |  |
| CC[C@H](C)[C@H](NC(=O)[C@H](CO)NC(=O)[C@H](CCC(=O)O)NC(=O)[C@H](CC(C)C)NC(=O)[C@H](C)NC(=O)[C@@H](N)CC(=O)O)C(=O)N[C@@H](CCSC)C(=O)N[C@H](C(=O)N[C@H](C(=O)N[C@@H](CCCCN)C(=O)N[C@@H](CO)C(=O)N[C@H](C(=O)N[C@@H](CO)C(=O)N[C@@H](Cc1ccccc1)C(=O)N[C@@H](CCCNC(=N)N)C(=O)O)C(C)C)[C@@H](C)O)[C@@H](C)O [Peptide 774.00] |  |  |  |  |  |  |  | IC50 (DRB1*0101 (DR1); purified HLA DR1, read-out: DR1 nM (In IC50 Format)): 0.385 µM; IC50 (DRB5*0101 (DR2w2a); purified HLA DR2w2β2, read-out: DR2w2B2 nM (In IC50 Format)): 20 µM; IC50 (DRB1*0301 (DR3w17); purified HLA DR3, read-out: DR3 nM (In IC50 Format)): 33.3 µM; IC50 (DRB1*0401 (DR4w4); purified HLA DR4w4, read-out: DR4w4 nM (In IC50 Format)): 0.11 µM; IC50 (DRB1*0701 (DR7); purified HLA DR7, read-out: DR7 nM (In IC50 Format)): 0.0841 µM |
